Measured values published in patent US20230321062A1, “COMBINATION THERAPIES” (Mirati Therapeutics, Inc., priority 2020, published 2023).
Like-named read-outs stand apart in the source and are kept apart here. Square brackets hold non-standard residues; d marks the D form. Peptide text beside a SMILES is read from it. * marks the point of attachment. Dolaproine = CO[C@@H]([C@@H]1CCCN1)[C@@H](C)C(=O)O; Dil = CC[C@H](C)[C@H](NC)[C@@H](CC(=O)O)OC; X1 = C[C@@H](N*)[C@@H](O)c1ccccc1; NMeV = CN[C@H](C(=O)O)C(C)C

Tests used:
[1] = cited from earlier work; for steady-state concentrations reached after: 1.25 mg/kg Q3W regimen; for exposure (AUC) in mild, moderate or severe renal impairment compared to normal renal function: 1.25 mg/kg enfortumab; for elimination half-life / mean clearance (CL): after enfortumab dosing; for mean clearance (CL): patients
[2] = target: hERG (Homo sapiens, UniProt Q12809); test: hERG assay (in vitro); format: cell-based; settings: read-out: IC50 on the potassium current
Chain of hERG (Q12809 whole entry): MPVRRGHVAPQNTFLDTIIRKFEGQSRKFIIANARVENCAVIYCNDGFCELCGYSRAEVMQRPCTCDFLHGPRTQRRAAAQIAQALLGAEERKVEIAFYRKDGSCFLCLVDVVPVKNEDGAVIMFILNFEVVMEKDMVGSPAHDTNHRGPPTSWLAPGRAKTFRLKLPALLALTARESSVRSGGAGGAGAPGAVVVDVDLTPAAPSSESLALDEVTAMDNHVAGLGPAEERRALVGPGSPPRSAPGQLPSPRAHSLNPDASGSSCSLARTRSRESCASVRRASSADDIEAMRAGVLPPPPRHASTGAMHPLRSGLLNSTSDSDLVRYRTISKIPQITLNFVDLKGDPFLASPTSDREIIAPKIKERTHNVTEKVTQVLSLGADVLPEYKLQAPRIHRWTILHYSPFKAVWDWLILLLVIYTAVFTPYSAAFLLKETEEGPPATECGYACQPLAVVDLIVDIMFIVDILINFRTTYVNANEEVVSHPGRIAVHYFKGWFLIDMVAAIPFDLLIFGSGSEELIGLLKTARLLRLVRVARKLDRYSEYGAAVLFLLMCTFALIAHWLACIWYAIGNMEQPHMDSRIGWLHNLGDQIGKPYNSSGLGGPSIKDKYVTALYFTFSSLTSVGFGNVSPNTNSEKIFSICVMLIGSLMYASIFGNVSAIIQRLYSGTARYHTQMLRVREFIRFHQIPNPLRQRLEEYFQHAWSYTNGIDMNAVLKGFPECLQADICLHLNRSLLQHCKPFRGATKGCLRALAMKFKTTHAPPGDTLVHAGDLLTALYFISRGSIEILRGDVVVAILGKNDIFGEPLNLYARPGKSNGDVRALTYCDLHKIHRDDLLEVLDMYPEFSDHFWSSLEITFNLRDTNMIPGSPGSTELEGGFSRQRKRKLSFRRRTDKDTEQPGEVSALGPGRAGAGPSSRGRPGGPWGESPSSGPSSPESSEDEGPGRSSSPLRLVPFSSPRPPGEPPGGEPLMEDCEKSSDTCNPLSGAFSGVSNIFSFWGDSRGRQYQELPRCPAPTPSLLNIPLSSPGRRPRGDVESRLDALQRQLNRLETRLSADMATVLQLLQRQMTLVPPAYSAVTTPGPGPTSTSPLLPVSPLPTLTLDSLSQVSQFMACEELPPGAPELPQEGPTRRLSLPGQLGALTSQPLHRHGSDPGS

[3] = in vivo; design: species or system dogs; settings: dog
[4] = neurological functional observation battery and respiratory evaluations; format: in vivo; settings: rats, doses up to 25 mg/kg
[5] = tested on: Caco-2 cell lines; test: bidirectional permeability study with Caco-2 cell lines; format: in vitro ADME; settings: Caco-2 bidirectional
[6] = target: T1, P-glycoprotein (P-gp) (Homo sapiens, UniProt P08183); test: P-gp substrate assessment in Caco-2 bidirectional permeability study; format: in vitro ADME
T1 construct: In a bidirectional permeability study with Caco-2 cell lines; endogenous in cells; host or cells: Caco-2

[7] = target: T2, Breast Cancer Resistance Protein (BCRP) (Homo sapiens, UniProt Q9UNQ0); test: BCRP substrate assessment in Caco-2 bidirectional permeability study; format: in vitro ADME
T2 construct: In a bidirectional permeability study with Caco-2 cell lines; endogenous in cells; host or cells: Caco-2

[8] = target: T3, P-gp (Homo sapiens, UniProt P08183); format: in vitro ADME
T3 construct: In a bidirectional permeability study with Caco-2 cell lines; endogenous in cells; host or cells: Caco-2

[9] = target: T4, BCRP (Homo sapiens, UniProt Q9UNQ0); format: in vitro ADME
T4 construct: In a bidirectional permeability study with Caco-2 cell lines; endogenous in cells; host or cells: Caco-2

[10] = tested on: human plasma proteins; format: in vitro ADME
[11] = tested on: cytochrome P-450; format: in vitro ADME; settings: human
[12] = target: CYP2C8 (Homo sapiens, UniProt P10632); test: direct CYP inhibition; format: in vitro ADME
Chain of CYP2C8 (P10632 whole entry): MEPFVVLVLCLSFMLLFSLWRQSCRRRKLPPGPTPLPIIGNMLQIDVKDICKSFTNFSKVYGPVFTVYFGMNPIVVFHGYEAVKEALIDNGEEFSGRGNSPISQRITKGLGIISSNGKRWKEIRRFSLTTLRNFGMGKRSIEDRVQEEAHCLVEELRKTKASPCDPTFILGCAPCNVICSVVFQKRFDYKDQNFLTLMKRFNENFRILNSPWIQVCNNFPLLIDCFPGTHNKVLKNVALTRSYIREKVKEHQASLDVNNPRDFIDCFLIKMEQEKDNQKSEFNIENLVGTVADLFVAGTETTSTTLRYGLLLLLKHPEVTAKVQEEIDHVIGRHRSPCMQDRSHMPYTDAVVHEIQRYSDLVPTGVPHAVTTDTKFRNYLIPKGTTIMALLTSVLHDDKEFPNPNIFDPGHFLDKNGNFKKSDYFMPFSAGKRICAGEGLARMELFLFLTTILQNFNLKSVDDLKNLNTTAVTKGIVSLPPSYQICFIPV

[13] = target: CYP2C9 (Homo sapiens, UniProt P11712); test: direct CYP inhibition; format: in vitro ADME
Chain of CYP2C9 (P11712 whole entry): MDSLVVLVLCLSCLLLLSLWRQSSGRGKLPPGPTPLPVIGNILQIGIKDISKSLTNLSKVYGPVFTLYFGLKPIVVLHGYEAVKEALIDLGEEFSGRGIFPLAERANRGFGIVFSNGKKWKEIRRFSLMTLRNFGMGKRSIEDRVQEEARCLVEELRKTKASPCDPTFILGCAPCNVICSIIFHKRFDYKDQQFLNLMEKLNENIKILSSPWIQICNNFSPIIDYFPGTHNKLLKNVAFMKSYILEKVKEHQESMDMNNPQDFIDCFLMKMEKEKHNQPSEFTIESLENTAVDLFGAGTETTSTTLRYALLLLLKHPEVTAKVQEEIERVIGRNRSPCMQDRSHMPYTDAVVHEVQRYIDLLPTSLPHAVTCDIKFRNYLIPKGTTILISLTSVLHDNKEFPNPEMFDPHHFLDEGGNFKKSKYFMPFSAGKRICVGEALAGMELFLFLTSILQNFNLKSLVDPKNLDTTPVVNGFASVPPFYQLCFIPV

[14] = target: CYP2C19 (Homo sapiens, UniProt P33261); test: direct CYP inhibition; format: in vitro ADME
Chain of CYP2C19 (P33261 whole entry): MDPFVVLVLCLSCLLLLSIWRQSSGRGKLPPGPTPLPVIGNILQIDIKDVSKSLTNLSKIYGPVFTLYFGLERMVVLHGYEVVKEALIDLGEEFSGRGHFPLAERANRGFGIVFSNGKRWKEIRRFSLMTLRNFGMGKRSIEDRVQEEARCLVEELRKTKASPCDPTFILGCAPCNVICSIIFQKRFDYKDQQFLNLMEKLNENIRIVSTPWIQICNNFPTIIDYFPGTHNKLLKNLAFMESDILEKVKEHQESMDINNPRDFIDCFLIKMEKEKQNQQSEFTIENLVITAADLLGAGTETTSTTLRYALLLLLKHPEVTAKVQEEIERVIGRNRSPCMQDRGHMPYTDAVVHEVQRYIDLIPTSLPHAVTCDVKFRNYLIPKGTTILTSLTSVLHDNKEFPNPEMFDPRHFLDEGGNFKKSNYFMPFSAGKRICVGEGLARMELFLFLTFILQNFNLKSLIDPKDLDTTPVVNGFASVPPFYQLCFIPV

[15] = target: CYP2D6 (Homo sapiens, UniProt P10635); test: direct CYP inhibition; format: in vitro ADME
[16] = target: CYP2B6 (Homo sapiens, UniProt P20813); test: direct CYP inhibition; format: in vitro ADME
Chain of CYP2B6 (P20813 whole entry): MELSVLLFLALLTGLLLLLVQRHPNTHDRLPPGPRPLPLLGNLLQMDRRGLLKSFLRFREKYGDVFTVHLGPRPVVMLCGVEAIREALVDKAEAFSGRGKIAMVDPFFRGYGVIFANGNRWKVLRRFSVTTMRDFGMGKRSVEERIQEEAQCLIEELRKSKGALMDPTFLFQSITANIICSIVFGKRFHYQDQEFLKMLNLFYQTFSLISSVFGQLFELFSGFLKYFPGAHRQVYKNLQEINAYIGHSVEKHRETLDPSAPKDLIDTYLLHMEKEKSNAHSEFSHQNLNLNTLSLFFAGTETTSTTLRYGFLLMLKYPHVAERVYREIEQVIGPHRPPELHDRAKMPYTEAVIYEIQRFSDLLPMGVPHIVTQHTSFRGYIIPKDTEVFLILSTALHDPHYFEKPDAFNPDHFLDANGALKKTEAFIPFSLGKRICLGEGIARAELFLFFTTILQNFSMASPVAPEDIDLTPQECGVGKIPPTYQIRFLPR

[17] = target: CYP1A2 (Homo sapiens, UniProt P05177); test: direct CYP inhibition; format: in vitro ADME
Chain of CYP1A2 (P05177 whole entry): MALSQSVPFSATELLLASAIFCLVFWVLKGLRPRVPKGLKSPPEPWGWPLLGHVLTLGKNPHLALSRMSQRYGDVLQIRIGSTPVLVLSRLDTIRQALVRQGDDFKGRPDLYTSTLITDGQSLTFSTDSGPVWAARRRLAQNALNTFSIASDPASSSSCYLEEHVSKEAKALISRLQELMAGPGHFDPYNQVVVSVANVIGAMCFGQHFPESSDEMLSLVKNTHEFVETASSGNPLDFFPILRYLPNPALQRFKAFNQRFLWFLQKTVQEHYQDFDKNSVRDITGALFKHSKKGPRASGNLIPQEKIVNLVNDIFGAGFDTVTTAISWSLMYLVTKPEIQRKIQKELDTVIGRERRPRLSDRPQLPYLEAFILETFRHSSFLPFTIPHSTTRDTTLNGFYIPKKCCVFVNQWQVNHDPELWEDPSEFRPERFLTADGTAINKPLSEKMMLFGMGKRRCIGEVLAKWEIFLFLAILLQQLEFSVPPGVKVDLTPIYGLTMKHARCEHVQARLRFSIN

[18] = target: CYP2A6 (Homo sapiens, UniProt P11509); test: direct CYP inhibition; format: in vitro ADME
Chain of CYP2A6 (P11509 whole entry): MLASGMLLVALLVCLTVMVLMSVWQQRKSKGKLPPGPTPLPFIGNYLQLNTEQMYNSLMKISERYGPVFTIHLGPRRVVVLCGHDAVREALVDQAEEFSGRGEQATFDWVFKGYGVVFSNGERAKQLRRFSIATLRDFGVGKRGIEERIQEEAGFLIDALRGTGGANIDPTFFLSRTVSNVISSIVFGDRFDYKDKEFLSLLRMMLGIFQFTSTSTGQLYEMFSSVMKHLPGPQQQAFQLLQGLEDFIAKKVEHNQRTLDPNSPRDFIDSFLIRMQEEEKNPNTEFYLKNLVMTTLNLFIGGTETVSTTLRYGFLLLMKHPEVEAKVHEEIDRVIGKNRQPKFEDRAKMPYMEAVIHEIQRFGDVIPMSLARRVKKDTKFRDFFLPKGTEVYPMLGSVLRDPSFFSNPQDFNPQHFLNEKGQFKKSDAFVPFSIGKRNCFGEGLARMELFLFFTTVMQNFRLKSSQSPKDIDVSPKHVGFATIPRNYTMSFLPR

[19] = target: CYP2E1 (Homo sapiens, UniProt P05181); test: direct CYP inhibition; format: in vitro ADME
Chain of CYP2E1 (P05181 whole entry): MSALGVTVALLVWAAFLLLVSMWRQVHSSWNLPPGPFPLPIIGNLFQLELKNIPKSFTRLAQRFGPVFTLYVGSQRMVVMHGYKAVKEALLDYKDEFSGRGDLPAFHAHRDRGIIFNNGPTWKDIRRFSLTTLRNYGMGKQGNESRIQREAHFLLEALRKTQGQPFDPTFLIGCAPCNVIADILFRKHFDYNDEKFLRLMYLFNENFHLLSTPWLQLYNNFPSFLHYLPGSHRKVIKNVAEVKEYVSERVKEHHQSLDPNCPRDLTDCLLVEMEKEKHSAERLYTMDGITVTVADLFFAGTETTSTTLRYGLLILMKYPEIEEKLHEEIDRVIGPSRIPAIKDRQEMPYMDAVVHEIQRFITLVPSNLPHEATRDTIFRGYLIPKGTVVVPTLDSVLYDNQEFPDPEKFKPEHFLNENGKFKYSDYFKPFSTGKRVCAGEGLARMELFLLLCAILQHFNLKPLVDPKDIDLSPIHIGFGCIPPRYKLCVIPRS

[20] = tested on: CYP enzymes; test: time- or metabolism-dependent CYP inhibition; format: in vitro ADME
[21] = tested on: PD-L1 on tumor cells; test: PD-L1 expression on tumor cells in vitro and in vivo; format: cell-based
Excerpt: (§1) Receptor tyrosine kinases (RTKs) are key regulators of signaling pathways leading to cell growth, survival, and migration. These kinases are dysregulated in many cancers through overexpression, genetic alteration or co-expression with high affinity ligands. Multiple sitravatinib RTK targets are genetically altered in a variety of cancers and act as oncogenic drivers, promoting cancer development and progression.

[22] = tested on: systemic/spleen T lymphocytes and MDSCs; test: pilot studies in syngeneic mouse tumor models (immune cells); format: in vivo
Excerpt: as §1

[23] = pharmacokinetics after single dose of sitravatinib free base capsules; format: in vivo
[24] = tested on: MET, Axl, MERTK, VEGFR family, PDGFR family, KIT, FLT3, Trk family, RET, DDR2, and selected Eph family members
[25] = tested on: RET, CBL, CHR4q12, DDR and Trk; settings: cited from earlier work
[26] = tested on: human tumor xenograft models; test: human tumor xenograft models; settings: mice, broad spectrum of models
[27] = tested on: target RTKs; test: cell-based assays of phosphorylation and kinase dependent function
[28] = tested on: target RTKs; test: oncogenic functions: MET-dependent cell viability and migration, endothelial tube formation and angiogenesis; settings: endothelial tube formation, angiogenesis
[29] = tested on: Urothelial Carcinoma; settings: EV-201; cited from earlier work
[30] = tested on: Urothelial Carcinoma; settings: cited from earlier work
[31] = target: T5, Nectin-4 (Homo sapiens, UniProt Q96NY8); settings: cited from earlier work
T5 construct: host or cells: cells that express Nectin-4
T5 sequence (Q96NY8 32-510): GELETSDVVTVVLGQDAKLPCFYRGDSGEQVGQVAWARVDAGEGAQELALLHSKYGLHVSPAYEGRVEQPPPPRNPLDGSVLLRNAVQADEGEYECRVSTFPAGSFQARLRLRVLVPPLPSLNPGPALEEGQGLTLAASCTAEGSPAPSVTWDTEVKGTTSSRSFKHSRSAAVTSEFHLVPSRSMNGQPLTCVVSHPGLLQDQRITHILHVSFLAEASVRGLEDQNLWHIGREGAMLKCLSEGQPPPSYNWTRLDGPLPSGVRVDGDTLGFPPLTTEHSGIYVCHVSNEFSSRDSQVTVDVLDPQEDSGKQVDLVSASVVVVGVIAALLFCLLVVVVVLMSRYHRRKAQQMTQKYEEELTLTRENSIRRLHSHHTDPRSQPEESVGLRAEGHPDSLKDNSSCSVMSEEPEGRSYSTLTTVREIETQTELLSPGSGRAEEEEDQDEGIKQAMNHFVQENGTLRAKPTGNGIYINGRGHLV

[32] = cited from earlier work
[33] = tested on: Urothelial Carcinoma; settings: cited from earlier work; remark: listed apart in the source
[34] = tested on: Urothelial Carcinoma; settings: cited from earlier work; remark: listed apart in the source
[35] = KEYNOTE-052, overall population
[36] = KEYNOTE-052, patients with CPS ≥10

## CC[C@H](C)[C@@H]([C@@H](CC(=O)N1CCC[C@H]1[C@H](OC)[C@@H](C)C(=O)N[C@H](C)[C@@H](O)c1ccccc1)OC)N(C)C(=O)[C@@H](NC(=O)[C@@H](NC)C(C)C)C(C)C [MMAE, monomethyl auristatin E] (H-[NMeV]V[Dil][Dolaproine]-X1)
[1]
  steady-state concentrations reached after: 1 treatment cycle
  exposure (AUC) in mild, moderate or severe renal impairment compared to normal renal function: No significant differences
  elimination half-life: 57.6 h
  mean clearance (CL): 2.7 L/h
[1]; in vivo
  accumulation following repeat administration of enfortumab: minimal accumulation
  time until which plasma concentrations increased after enfortumab dosing: ~2 days
[1]; population PK, n=31
  AUC increase in patients with mild hepatic impairment compared to normal hepatic function: 48%

## COCCNCc1ccc(-c2cc3nccc(Oc4ccc(NC(=O)C5(C(=O)Nc6ccc(F)cc6)CC5)cc4F)c3s2)nc1 [sitravatinib, N-(3-Fluoro-4-(2-(5-((2-methoxyethylamino)methyl)pyridin-2-yl)thieno[3,2-b]pyridin-7-yloxy)phenyl)-N-(4-fluorophenyl)cyclopropane-1,1-dicarboxamide]
[2]
  IC50: 600 nM
[3]
  vascular pressures: Minor increases
[3]; 4 mg/kg
  concentration at 6 hr: 72 ng/mL
[4]
  neurological functional observation battery and respiratory evaluations (tidal volume, respiration rate, minute volume): did not reveal any sitravatinib related effects
[5]
  permeability classification: highly permeable
[6]
  substrate of P-gp: not a substrate
[7]
  substrate of BCRP: not a substrate
[8]
  IC50: 838 nM
[9]
  IC50: 1510 nM
[10]
  bound to human plasma proteins: 98.6%
[11]
  CYP enzymes involved in metabolism: multiple enzymes, including CYP 1A2, 2A6, 2B6, 2C8, 2C9, 2D6, 2E1, and 3A4 are involved
[12]
  IC50: 2900 nM
[13]
  IC50: 11000 nM
[14]
  IC50: 10000 nM
[15]
  IC50: 1900 nM
[16]
  IC50: > 20000 nM
[16]; human, highest concentration evaluated (20 μM)
  inhibition at 20 µM: ~50%
[17]
  direct inhibition of CYP1A2: little or no evidence
[18]
  direct inhibition of CYP2A6: little or no evidence
[19]
  direct inhibition of CYP2E1: little or no evidence
[20]
  time- or metabolism-dependent inhibition of any of the CYP enzymes evaluated: little or no evidence
[21]
  expression of PD-L1 on tumor cells: increase expression of PD-L1
[22]
  systemic MDSCs: reduces the number
  systemic/spleen CD4+ and CD8+ T lymphocytes: increases the proliferation and fraction
[23]; doses up to 200 mg
  dose proportionality of Cmax and AUC: dose proportional
[23]; human, in vivo, oral administration, read-out: mean elimination half life
  half-life: 42 to 58 h
[24]; biochemical assays
  inhibition of kinase activity: potent, concentration-dependent inhibition
[24]; generally
  potency against intended clinical targets: less than 0.1 μM
[25]
  inhibition of a closely related spectrum of tyrosine kinases: potent inhibition
[26]
  anti-tumor activity in human xenograft tumor models: anti tumor efficacy
[26]; listed as Sitravatinib
  anti-tumor activity in human xenograft tumor models: tumor regression
[27]
  phosphorylation and kinase dependent function: inhibited phosphorylation and kinase dependent function
[28]
  oncogenic functions associated with target RTKs: inhibited oncogenic functions

## enfortumab: Nectin-4 directed ADC: fully human anti-Nectin-4 IgG1 kappa antibody (AGS-22C3) conjugated to MMAE via protease-cleavable maleimidocaproyl valine-citrulline linker
[1]
  steady-state concentrations reached after: 1 treatment cycle
  exposure (AUC) in mild, moderate or severe renal impairment compared to normal renal function: No significant differences
  elimination half-life: 81.6 h
  mean clearance (CL): 0.10 L/h
[1]; 0.5 to 1.25 mg/kg, days 1, 8, 15 of 28-day cycle
  dose proportionality of PK: linear dose-proportional PK
[1]; following administration of enfortumab
  estimated mean volume of distribution at steady state (Vss): 11 L
[1]; in vivo
  accumulation following repeat administration of enfortumab: minimal accumulation
[1]; intravenous infusion
  time of peak concentrations: end of infusion
[1]; population PK
  differences in pharmacokinetics based on age, sex, or race/ethnicity: no clinically significant differences
[29]
  complete response rate: 12%
  median DOR: 7.6 months
  median overall survival: 11.7 months
  overall ORR as confirmed by central review: 44%
[30]; EV-103 (pembrolizumab and enfortumab used in combination)
  overall ORR as confirmed by central review: 73%
[30]; EV-103, median follow-up 10.4 months
  median DOR: not reached
[30]; EV-103
  12-month overall survival rate: 82%
  complete response rate: 16%
  median overall survival: not reached
[31]
  affinity of binding to cells that express Nectin-4: high affinity

## pembrolizumab: humanized monoclonal IgG4 kappa antibody that blocks the interaction between PD-1 and its ligands, PD-L1 and PD-L2
[32]; 2 to 10 mg/kg Q3W
  steady-state exposure versus dose: increased dose proportionally
[32]; Q3W regimen
  systemic accumulation: approximately 2.1 fold
[32]; population PK, 2993 patients with various cancers
  geometric mean clearance (CL): 195 mL/day
[32]; population PK
  geometric mean volume of distribution at steady state (Vss): 6.0 L
[33]; KEYNOTE-045, all subgroups examined
  OS versus chemotherapy in subgroups: OS benefit over chemotherapy
[33]; KEYNOTE-045, patients with CPS≥10
  ORR as confirmed by central review: 20%
[33]; KEYNOTE-045, pembrolizumab group
  overall ORR as confirmed by central review: 21%
[33]; KEYNOTE-045
  median DOR: not reached
  median overall survival: 10.1 months
[34]; [35]
  median DOR: 30.1 months
  overall ORR as confirmed by central review: 29%
[34]; KEYNOTE-052, overall
  median overall survival: 11.3 months
[34]; [36]
  ORR as confirmed by central review: 47%
  median DOR: not reached
  median overall survival: 18.5 months
